Experiments:
[1] = test system: male c57bl6J mice; assay: Tactile allodynia produced by repeat dosing of test drug (induction of medication overuse headache); assay type: in vivo, mouse; details: daily for 11 days; B1049 10 mg/kg s.c., sumatriptan 0.6 mg/kg i.p.; FIG. 5
Procedure: Mice (25 male c57bl6J mice, n=4-5/group) were habituated for 2 days on testing rack prior to injections. Mice were treated with vehicle (VEH-VEH (saline), VEH-B1049 (10% BCD-saline)), sumatriptan (SUMA) (0.6 mg/kg, i.p.), SNC80 (10 mg/kg, i.p.), or B1049 (10 mg/kg, s.c.) daily for 11 days. Mechanical sensitivity was measured as the 50% withdrawal threshold to manual von Frey hair stimulation on days 1 and 11. On these days, mice were habituated to the rack for 15-20 min, following which baseline mechanical thresholds were determined prior to administration of drug or control. On day 1 following assessment of baseline mechanical threshold, mice were weighed and injected with drug or control and returned to home cage. The results are illustrated in FIG. 5.

[2] = test system: rat; assay: Mechanical allodynia after Freund's Complete Adjuvant, Randall-Selitto (rat); assay type: in vivo; details: route sc, p < 0.05 vs vehicle
Procedure: Animals were acclimated to the vivarium for at least 48 hr prior to behavioral testing. Inflammation was induced for both rodent species with the administration of an intraplantar (subcutaneous injection into the plantar surface of the hind paw, i.pl.) injection of 0.10 ml Freund's Complete Adjuvant (FCA).
For rat studies, the experiments were conducted 24 hours after CFA administration. Rats are tested for mechanical allodynia in a Randall-Selitto apparatus. The inflamed paw is put on a pedestal and a pointed force of increasing intensity (0 to 250 grams) is applied to the paw. When the animal struggles to withdraw from the force the test is stopped and the force to induce that struggle is recorded. Data may be presented as mean grams of force to withdrawal or a percentage of the maximum possible effect.

[3] = test system: adult male C57 mice; assay: Tail suspension test (TST); assay type: in vivo, mouse; details: route sc, po; p < 0.05 compared to vehicle-treated mice
Procedure: The experiments were performed using adult male C57 mice (6-10 weeks of age, 20-30 g, Hilltop Lab, PA). The mice were housed in standard rodent cages with stainless steel mesh wire bar lids in groups of 4 with controlled temperature and light cycle (6:00 a.m.-6:00 p.m.). Animals were given free access to food (Harlan Teklad Global 18% protein (Madison, Wis.)) and water during a minimum 2-day habituation period to the laboratory. Animals that were used in the study were handled, housed, and sacrificed (using compressed CO2) in accord with the current NIH guidelines regarding the use and care of laboratory animals, and all applicable local, state, and federal regulations and guidelines. Animals are identified by cage number, and by markings applied to the proximal tip of the tail using a permanent marker. Group sizes (n=8, and therefore 30-50 animals per study) provide reliable estimates of treatment effects, and this species and strain of mouse has been recognized as appropriate for pharmacology studies.
To measure efficacy of the compounds the compounds were tested using a tail suspension test. The tail suspension test is a behavioral test used to evaluate the efficacy of antidepressant drugs in rodents. In the TST, mice (n=8/group) were suspended by the tail with tape approximately 30-50 cm above the lab bench. Mice are positioned such that the base of their tail is perpendicular to the lab bench. Each mouse is given 1 trial that last 6 minutes. The total duration of immobility is calculated as the percentage of time that the mouse is immobile. The duration of immobility is the main parameter measured. This is calculated from the cumulated time during which the animals is absent of initiated movements including passive swaying. When antidepressant drugs are administered, immobility is decreased by a variety of classes of antidepressant drugs. One or more of the compounds show antidepressant activity.

[4] = test system: male c57bl6J mice; assay: Reversal of opioid-induced hyperalgesia (morphine); assay type: in vivo, mouse; details: 10 mg/kg s.c., 30 min prior to testing; morphine twice daily for 4 days; FIG. 4
Procedure: Next it was determined that B1049 could reverse opioid-induced hyperalgesia. Mice (44 male c57bl6J mice, n=8-9/group) were habituated for 2 days on testing rack prior to injections. Mice were treated with vehicle (VEH-VEH (saline), VEH-B1049 (10% BCD-saline)) or morphine (MORPH) (20 mg/kg, s.c. days 1-3, 40 mg/kg s.c. day 4) twice daily (9 a.m. and 5 p.m.) for 4 days. Mechanical sensitivity was measured as the 50% withdrawal threshold to manual von Frey hair stimulation on day 5. Baseline measurement were taken 16 hours after final MORPH/VEH injection and 3 h later, post-drug measurements were taken after dosing with B1049 (10 mg/kg, s.c., 30 min prior to testing) or SNC80 (10 mg/kg, i.p., 45 min prior to testing). (***p<0.001 compared to post-drug SUMA-VEH). The results are illustrated in FIG. 4.

[5] = test system: rat; assay: Hemilesioned rat 6-OHDA model (bar, drag, rotarod tests); assay type: in vivo; details: route sc, p < 0.05 vs vehicle
Procedure: Compounds were tested for efficacy in reversing akinesia and bradykinesia in two well accepted rodent Parkinson's disease (PD) models; the haloperidol-induced rat catalepsy and 6-OHDA rat hemiparkinson lesion models.
In the hemilesioned rat 6-OHDA model, the effect of compound on the akinetic response to lesioning of the contralateral forepaw in the bar test and stepping activity as measured by the drag test were determined. […] This assay examines efficacy for reversing PD motor symptoms (i.e. akinesia/bradykinesia and gait abilities). The behavioral readouts will include immobility time in the bar test (akinesia), number of steps in the drag test (akinesia/bradykinesia) and time spent on rod in the rotarod test (overall gait ability, gross motor behavior). Compounds were administered subcutaneously and efficacy was evaluated between 30 and 90 min post dose.

[6] = test system: mouse; assay: Tactile allodynia produced by nitroglycerin (migraine model, mouse); assay type: in vivo; details: route sc, nitroglycerin 10 mg/kg ip, p < 0.05 vs vehicle
Procedure: Compounds were tested for efficacy in rodent models of nitroglycerine induced migraine. In this model both rats and mice can be induced to have a behavioral response consistent with the progression of a migraine attack by the intraperitoneal injection of nitroglycerin. In this test mice or rats (n=8/group) are given an intraperitoneal injection of nitroglycerin at 10 mg/kg. After 90 minutes the animals are subcutaneously dosed with test compound. A measurement of mechanical allodynia will be obtained using the up/down method with seven von Frey monofilaments. There is a specific series used for rat and mouse. Each monofilament is delivered to the hind paw for approximately 1-2 seconds. If there is a response, the next lower force will be delivered. This procedure will be performed until no response was made at the highest force or until four stimuli are administered following the initial response. The 50% paw withdrawal threshold for the hind paw will be calculated using the following formula: [Xth]log=[vFr]log+ky where [vFr] is the force of the last von Frey used, k is the average interval (in log units) between the von Frey monofilaments, and y is a value that depends upon the pattern of withdrawal responses. Testing for tactile sensitivity will be performed and a withdrawal value will be assigned as the tactile sensitivity (expressed in grams of force required to elicit a response) for the injected paw for each animal. Data is presented as the mean grams required to produce a hind paw withdrawal from the von Frey stimulus. […] Compounds found to be effective in this model of migraine at the doses indicated, although other doses may also be active. Other compounds described herein were not necessarily tested, but are expected to be able have some level of efficacy.

SMILES: COCCOc1cccc([C@@H]2CCN(CCn3cccc3)[C@H](C)[C@H]2COc2ccc3c(c2)C(=O)NC3)c1 (relative stereo) [Compound B1049, (−)-6-{[(trans, trans)-4-[3-(2-methoxyethoxy)phenyl]-2-methyl-1-[2-(1H-pyrrol-1-yl)ethyl]piperidin-3-yl]methoxy}-2,3-dihydro-1H-isoindol-1-one]
- induction of medication overuse headache (tactile allodynia after repeat dosing) [1]: does not induce medication overuse headache
- Active CFA Dose [2]: ≤10 mg/kg
- Active TST Dose [3]: ≤30 mg/kg
- reversal of opioid induced hyperalgesia [4]: able to reverse opioid induced hyperalgesia
- Active Dose (hemilesioned rat 6-OHDA model) [5]: ≤30 mg/kg
- Active Migraine Doses [6]: ≤10 mg/kg
